In patent US7419984B2, “Pyrimidines and uses thereof” (Cell Therapeutics, Inc., priority 2002, dated 2008):

Each molecule was assayed against T1, human LPAAT-β (Homo sapiens, UniProt O15120) (assay: LPAAT-β cell-free assay). Conditions: Sf9 cell membrane overexpressing recombinant LPAAT-β.
T1 construct: the full-length human LPAAT-β cDNA was amplified by PCR; poly-histidine tag (N); made in house; host or cells: Sf9 insect cells (baculovirus, pFastBac HTc); the membrane fraction was used as the enzyme
T1 sequence (O15120 24-278): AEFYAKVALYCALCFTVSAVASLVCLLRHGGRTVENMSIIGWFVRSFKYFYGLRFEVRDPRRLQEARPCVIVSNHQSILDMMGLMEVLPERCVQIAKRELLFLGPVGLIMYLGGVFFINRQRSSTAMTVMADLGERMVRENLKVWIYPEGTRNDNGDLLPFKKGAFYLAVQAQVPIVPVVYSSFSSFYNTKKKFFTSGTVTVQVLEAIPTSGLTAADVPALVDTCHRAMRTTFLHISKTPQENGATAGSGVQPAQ
Format: biochemical
Procedure, shortened: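 Membranes from Sf9 cells expressing His/myc-tagged full-length human LPAAT-β were used in HEPES-saline pH 7.5 with 1 mg/ml BSA. Compound was added from a 200 μM DMSO stock, and reaction with 18:1-CoA and sn-1-18:1 lysoPA (1 mM stocks) ran 25 min at RT. Released CoA was detected with DTNB at 405 nm; a radiometric variant used 200 μM [14C]18:1-CoA and 200 μM lysoPA.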
For CCOc1ccc(I)cc1-c1cc(Nc2ccc(N=[N+]=[N-])cc2)nc(N)n1 [Example 140, N*4*-{4-Azido-phenyl)-6-(2-ethoxy-5-iodo-phenyl)-pyrimidine-2,4-diamine], the IC50 was 100 nM.
Work on CCOc1ccc(Cl)cc1-c1cc(Nc2ccc(OC)cc2)nc(N)n1 [Example 58, 6-(5-Chloro-2-ethoxy-phenyl)-N*4*-(4-methoxy-phenyl)-pyrimidine-2,4-diamine] yielded an IC50 of 200 nM.
Work on Cc1ccc(Br)cc1-c1cc(Nc2ccc(CCO)cc2)nc(N)n1 [Example 100, 2-{4-[2-Amino-6-(5-bromo-2-methyl-phenyl)-pyrimidin-4-ylamino]-phenyl}-ethanol] yielded an IC50 of 49 nM.
With COc1ccc(Nc2cc(-c3cc(Cl)ccc3Cl)nc(N)n2)cc1 [Example 16, 6-(2,5-Dichloro-phenyl)-N*4*-(4-methoxy-phenyl)-pyrimidine-2,4-diamine] the IC50 was 120 nM.
With CCOc1ccc(Cl)cc1-c1cc(Nc2ccc(COC(=O)CCC(=O)O)cc2)nc(N)n1 [Example 63, Succinic acid mono-{4-[2-amino-6-(5-chloro-2-ethoxy-phenyl)-pyrimidin-4-ylamino]-benzyl}-ester] the IC50 was 83 nM.
Work on CCOc1ccc(Cl)cc1-c1cc(Nc2ccc(CC(C)(C)O)cc2)nc(N)n1 [Example 120, 1-{4-[2-amino-6-(5-chloro-2-ethoxyphenyl)pyrimidin-4-ylamino]phenyl}-2-methyl-propan-2-ol] yielded an IC50 of 180 nM.
CCOc1ccc(Cl)cc1-c1cc(Nc2ccc(CO)cc2)nc(N)n1 [Example 44, {4-[2-Amino-6-(5-chloro-2-ethoxy-phenyl)-pyrimidin-4-ylamino]-phenyl}-methanol] gave an IC50 of 75 nM.
For Nc1nc(Nc2ccc(O)cc2)cc(-c2cc(Cl)ccc2Cl)n1 [Example 17, 4-[2-Amino-6-(2,5-dichloro-phenyl)-pyrimidin-4-ylamino]-phenol], the IC50 was 240 nM.
With COc1ccc(Nc2cc(-c3cc(Cl)ccc3C)nc(N)n2)cc1 [Example 28, 6-(5-Chloro-2-methyl-phenyl)-N*4*-(4-methoxy-phenyl)-pyrimidine-2,4-diamine] the IC50 was 200 nM.
In the case of Nc1nc(Nc2ccc(Cl)cc2)cc(-c2cc(Cl)ccc2OCC(F)(F)F)n1 [Example 89, N*4*-(4-Chloro-phenyl)-6-[5-chloro-2-(2,2,2-trifluoro-ethoxy)-phenyl]-pyrimidine-2,4-diamine], the IC50 is reported as 100 nM.
For CC(=NO)c1ccc(Nc2cc(-c3cc(Cl)cc(Cl)c3Cl)nc(N)n2)cc1 [Example 147, 1-{4-[2-Amino-6-(2,3,5-trichloro-phenyl)-pyrimidin-4-ylamino]-phenyl}-ethanone oxime], the IC50 was 390 nM.
For CCOc1ccc(Br)cc1-c1cc(Nc2cnc3ccccc3c2)nc(N)n1 [Example 144, 6-(5-Bromo-2-ethoxy-phenyl)-N*4*-quinolin-3-yl-pyrimidine-2,4-diamine], the IC50 was 460 nM.
COc1ccccc1COc1ccc(Br)cc1-c1cc(Nc2ccc(C)cc2)nc(N)n1 [Example 188, 6-[5-Bromo-2-(2-methoxy-benzyloxy)-phenyl]-N*4*-p-tolyl-pyrimidine-2,4-diamine] gave an IC50 of 21 nM.
Molecule Nc1nc(Nc2ccc([N+](=O)[O-])cc2)cc(-c2cc(Cl)ccc2Cl)n1 [Example 25, 6-(2,5-Dichloro-phenyl)-N*4*-(4-nitro-phenyl)-pyrimidine-2,4-diamine] has an IC50 of 9 nM.
Work on COc1ccc(Cl)cc1-c1cc(Nc2ccc(N)cc2)nc(N)n1 [Example 12, N*4*-(4-Amino-phenyl)-6-(5-chloro-2-methoxy-phenyl)-pyrimidine-2,4-diamine] yielded an IC50 of 95 nM.
CCc1ccc(Cl)cc1-c1cc(Nc2ccc([N+](=O)[O-])cc2)nc(N)n1 [Example 169, 6-(5-Chloro-2-ethyl-phenyl)-N*-4*-(4-nitro-phenyl)-pyrimidine-2,4-diamine] gave an IC50 of 93 nM.
Molecule CCc1ccc(Cl)cc1-c1cc(Nc2ccc(C(F)(F)F)cc2)nc(N)n1 [Example 164, 6-(5-Chloro-2-ethyl-phenyl)-N*4*-(4-trifluoromethyl-phenyl)-pyrimidine-2,4-diamine] has an IC50 of 670 nM.
